Laboratory results: patent US20020156112A1, “Endostatin-like angiogenesis inhibition” (priority 2000, published 2002)

Columns and labels:
Type in all cases: binding
[1] = tested on: RGD-endostatin interaction; assay: Colloid colour-change drug screen for endostatin mimics via RGD/endostatin interaction (Example 8); conditions: 5 μL candidate drug at 2.9 mg/ml in DMSO; 4.75 ul of 0.1 mg/mL endostatin; room temperature, about 20 minutes
Method: In yet another aspect of the invention, a high throughput drug screening assay is described that identifies endostatin mimics is described. Histidine-tagged peptides containing two tandem GRGDS motifs are immobilized, from a phosphate buffered saline solution, onto gold nanoparticles (called colloids) that have been derivatized with NTA-Ni-SAMs that capture histidine-tagged species. Endostatin, which is a dimer in its functional form, is added to the colloidal solution. Dimeric endostatin presents two binding sites that recognize GRGDS motif peptides. The binding of dimeric endostatin to two peptides attached to two different colloids, draws the colloids close together and causes the color of the gold colloid solution to change from pink to blue. Recall that colloidal gold appears pink when the particles are dispersed in a homogeneous solution, but the solution turns blue when the particles are aggregated, see FIG. 5. Drug candidates are added to the colloid-immobilized GRGDS motif peptides and endostatin solution. When a drug candidate effectively interrupts the endostatin—GRGDS motif peptide interaction, the solution remains pink. Recall that the drug candidates are monomeric and therefore, even if they bind to the GRGDS peptides, they cannot bring two colloids together, which would cause the solution color to change from the inherent pink, to blue, see FIG. 7.
60 uM NTA colloids presenting a His-tagged peptide containing […] RGD motifs (GRGDSGRGDS) were prepared by incubating 1 mL of colloids with 200 ul 100 uM His-RGD for ten minutes, pelleting the colloids to remove excess unbound peptide, and resuspending the colloids in PBS. Negative control colloids were prepared by substituting a random His-tagged peptide in place of the RGD peptide. 30 μL RGD-colloids (or random peptide-colloids for negative controls) were added to each well of a 96-well plate along with 60 ul PBS per well. 5 μL of a candidate drug at 2.9 mg/ml in DMSO was added to each well of the plate. Candidate drugs including L-histidine, D-cycloserine, quisqualic acid and suramin were assessed. (See FIGS. 1-4). DMSO was added in place of a drug to each of the positive and negative controls. 4.75 ul of 0.1 mg/mL endostatin was added to each well. The plate was incubated at room temperature and observed for color change. After about 20 minutes, the positive controls changed color from pink to blue as the endostatin bound to the RGD peptide. […] Drugs identified in this manner that bound to the RGD motif and inhibited binding of endostatin may be endostatin mimics and could be used as synthetic replacements of endostatin.

[2] = target: T1, endostatin—GRGDS interaction (Homo sapiens, UniProt P39060); assay: Vitronectin competition in gold colloid colour-change assay (Example 6)
T1 construct: purchased Calbiochem 324746
T1 sequence (P39060 1572-1754 limits assumed): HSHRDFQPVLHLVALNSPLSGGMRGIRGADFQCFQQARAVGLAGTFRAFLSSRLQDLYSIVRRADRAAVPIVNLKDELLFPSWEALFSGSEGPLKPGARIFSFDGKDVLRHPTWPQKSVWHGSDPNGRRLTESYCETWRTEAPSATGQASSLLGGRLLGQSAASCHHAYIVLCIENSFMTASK
Method: 40 μM NTA gold colloids were prepared which presented the His-tagged RGD peptide (Sequence ID No.1, see Table 1). These colloids were mixed with endostatin (0.1 mg /mL) and turned blue, indicating binding of endostatin to the GRGDS peptide (A1, A2, FIG. 6). Control colloids presenting an irrelevant FLR-peptide (Sequence ID #2, see table 1) remained pink (wells A3, A4). At the highest concentration of vitronectin (0.1 mg /ml), the endostatin—GRGDS interaction is disrupted, and the well remains pink (B1). At lower concentrations of vitronectin, the endostatin—GRDS interaction is not affected and the wells turn blue (B2-B5).

[3] = Biotin-streptavidin interaction with gold colloids (Example 1)
Method: (§1) Gold colloids were prepared using a mixture of 10 μM biotin thiol, 10 μM NTA thiol, and 580 μM C11 thiol. Control colloids were prepared using 20 μM NTA thiol and 580 μM C11 thiol for a total thiol concentration of 600 μM. After deposition, the colloids were heat cycled in 400 μM EG3 thiol, and charged with nickel sulfate. A streptavidin stock solution (1 mg/mL) was prepared in 10 mM sodium phosphate buffer, 100 mM sodium chloride, pH 7.4 (buffer) To detect the biotin-streptavidin interaction, 60 μL buffer, 10 μL streptavidin, and 30 μL colloids, were mixed in a well of a 96-well plate. The plate was incubated at room temperature and observed for color change. At the three highest concentrations of streptavidin (0.1 mg/mL, 0.01 mg/mL, 0.001 mg/mL) the colloids presenting biotin turned blue (wells A1, A2, A3, FIG. 5). At lower concentrations of streptavidin, the wells containing biotin colloids remained pink (wells A4, A5, A6, A7). A similar experiment was performed using colloids presenting only the NTA group (wells B1-B7).
(§2) FIG. 5 is a digital photo of a colorimetric nanoparticle experiment in which gold colloids were derivatized with either biotin-SAMs (top row) or NTA-Ni-SAMs (bottom row). Streptavidin which has four binding sites for biotin, and thus will cross-link biotin-presenting colloids, was added free in solution. […]

[4] = Biotin-streptavidin interaction, control colloids (Example 1); conditions: same streptavidin concentrations; wells B1-B7
Method: as §1, §2

N[C@@H](Cn1oc(=O)[nH]c1=O)C(=O)O [quisqualic acid]
disruption of RGD-endostatin interaction (well remains pink) [1]: disrupted the RGD-endostatin interaction

Cc1ccc(C(=O)Nc2ccc(S(=O)(=O)O)c3cc(S(=O)(=O)O)cc(S(=O)(=O)O)c23)cc1NC(=O)c1cccc(NC(=O)Nc2cccc(C(=O)Nc3cc(C(=O)Nc4ccc(S(=O)(=O)O)c5cc(S(=O)(=O)O)cc(S(=O)(=O)O)c45)ccc3C)c2)c1 [suramin]
disruption of RGD-endostatin interaction (well remains pink) [1]: disrupted the RGD-endostatin interaction

vitronectin: full-length vitronectin, a cell adhesion molecule containing the GRGDS motif
effect on endostatin—GRGDS interaction ([2]; highest concentration of vitronectin (0.1 mg/ml), well B1): disrupted
effect on endostatin—GRGDS interaction ([2]; lower concentrations of vitronectin, wells B2-B5): not affected

N[C@@H]1CONC1=O [D-cycloserine]
disruption of RGD-endostatin interaction (well remains pink) [1]: disrupted the RGD-endostatin interaction

streptavidin: Streptavidin which has four binding sites for biotin, added free in solution
colour of biotin colloids ([3]; lower concentrations of streptavidin, wells A4-A7): remained pink
colour of biotin colloids ([3]; three highest concentrations of streptavidin (0.1 mg/mL, 0.01 mg/mL, 0.001 mg/mL), wells A1-A3): turned blue
colour of NTA-only control colloids [4]: remained pink

N[C@@H](Cc1c[nH]cn1)C(=O)O [L-histidine]
disruption of RGD-endostatin interaction (well remains pink) [1]: disrupted the RGD-endostatin interaction
